Patent publication US5750754A, “Heterocyclic compounds” (Zeneca Limited, priority 1993, dated 1998)
Structures can show the parent of a compound that is named as a salt.

Experiments:
[1] = molecular target: T1, purified human platelet fibrinogen receptor (GPIIb/IIIa) (Homo sapiens, UniProt P05106+P08514); experiment: Test (b): GPIIb/IIIa ELISA, inhibition of biotinylated fibrinogen binding; settings: purified human platelet GPIIb/IIIa, ELISA; read-out: Test (b): pIC50 (-log(IC50)), 50% inhibition of biotinylated fibrinogen binding to GPIIb/IIIa (converted)
T1 construct: is isolated from human platelet lysates; from tissue
In short: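 Inhibition of biotinylated fibrinogen ([…]) binding to immobilised human platelet fibrinogen receptor, purified by KYGRGDS peptide affinity chromatography, was measured after 2 h at 30 °C. Readout: streptavidin–biotin-HRP colour with TMB at […]; value expressed as pIC50.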

[2] = molecular target: T2, human, citrated, platelet-rich plasma (Homo sapiens, UniProt P05106+P08514); experiment: Test (a): inhibition of ADP stimulated platelet aggregation (Born); assay type: cell-based; settings: ADP induced aggregation of human platelet-rich plasma; read-out: Test (a): pA2 value indicating potency of platelet aggregation inhibition (converted)
T2 construct: aggregating human, citrated, platelet-rich plasma; endogenous in cells; host or cells: human platelets in citrated platelet-rich plasma
In short: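 pA2 calculated by comparing ADP EC50-type (50% response) values in presence and absence of compound, averaged across concentrations (generally 10-^5 M to 10-^10 M). Aggregation (Born) induced by ADP in citrated human platelet-rich plasma, giving dose-response curves.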

T1 sequence (P08514 32-887 limits assumed): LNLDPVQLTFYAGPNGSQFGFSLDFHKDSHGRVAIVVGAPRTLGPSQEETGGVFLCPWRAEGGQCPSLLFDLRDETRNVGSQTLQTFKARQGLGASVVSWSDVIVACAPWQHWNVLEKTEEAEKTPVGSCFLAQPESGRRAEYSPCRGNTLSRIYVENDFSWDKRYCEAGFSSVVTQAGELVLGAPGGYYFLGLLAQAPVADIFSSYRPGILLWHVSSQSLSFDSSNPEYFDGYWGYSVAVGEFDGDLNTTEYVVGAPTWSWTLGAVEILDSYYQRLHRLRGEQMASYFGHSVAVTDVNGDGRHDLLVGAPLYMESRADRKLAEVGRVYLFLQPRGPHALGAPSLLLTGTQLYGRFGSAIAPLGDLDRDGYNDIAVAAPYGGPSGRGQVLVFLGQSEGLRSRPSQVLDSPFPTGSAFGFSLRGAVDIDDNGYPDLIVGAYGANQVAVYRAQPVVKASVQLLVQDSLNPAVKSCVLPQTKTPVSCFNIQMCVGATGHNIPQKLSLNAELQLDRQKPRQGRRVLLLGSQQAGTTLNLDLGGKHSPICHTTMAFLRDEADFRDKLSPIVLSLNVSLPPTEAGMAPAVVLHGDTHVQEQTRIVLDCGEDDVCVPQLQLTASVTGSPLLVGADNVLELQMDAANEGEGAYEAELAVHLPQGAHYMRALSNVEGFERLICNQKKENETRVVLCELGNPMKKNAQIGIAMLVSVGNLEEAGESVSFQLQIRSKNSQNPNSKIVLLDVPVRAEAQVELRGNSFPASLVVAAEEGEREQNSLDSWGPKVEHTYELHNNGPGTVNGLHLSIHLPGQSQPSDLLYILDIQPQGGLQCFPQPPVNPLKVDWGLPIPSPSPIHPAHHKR
T1 sequence (P08514 891-1039 limits assumed): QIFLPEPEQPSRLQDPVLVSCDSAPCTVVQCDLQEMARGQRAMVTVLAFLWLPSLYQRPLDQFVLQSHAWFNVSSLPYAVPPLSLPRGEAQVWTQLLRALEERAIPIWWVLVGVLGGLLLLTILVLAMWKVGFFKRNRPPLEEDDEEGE
T1 sequence (P05106 27-788): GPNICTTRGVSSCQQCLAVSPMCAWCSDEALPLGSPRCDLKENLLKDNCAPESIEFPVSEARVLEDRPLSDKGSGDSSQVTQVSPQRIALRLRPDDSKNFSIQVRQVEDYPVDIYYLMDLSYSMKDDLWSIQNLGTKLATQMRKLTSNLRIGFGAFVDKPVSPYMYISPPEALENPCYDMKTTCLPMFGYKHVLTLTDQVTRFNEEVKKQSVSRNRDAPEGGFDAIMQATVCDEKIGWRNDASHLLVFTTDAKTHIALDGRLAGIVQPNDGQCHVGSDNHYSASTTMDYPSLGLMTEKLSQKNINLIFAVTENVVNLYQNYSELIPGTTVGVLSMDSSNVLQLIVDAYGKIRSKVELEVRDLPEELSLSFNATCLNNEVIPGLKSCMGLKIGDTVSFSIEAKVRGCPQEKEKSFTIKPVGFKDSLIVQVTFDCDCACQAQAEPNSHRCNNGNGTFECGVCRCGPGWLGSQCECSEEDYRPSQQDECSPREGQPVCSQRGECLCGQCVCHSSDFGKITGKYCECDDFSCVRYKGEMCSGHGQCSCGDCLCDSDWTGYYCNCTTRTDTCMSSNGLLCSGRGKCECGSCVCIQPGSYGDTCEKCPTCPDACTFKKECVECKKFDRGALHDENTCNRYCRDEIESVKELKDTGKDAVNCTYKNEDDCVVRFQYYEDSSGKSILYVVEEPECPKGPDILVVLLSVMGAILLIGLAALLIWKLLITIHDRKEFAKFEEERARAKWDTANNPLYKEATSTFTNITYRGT
T2 sequence (P08514 32-887 limits assumed): as the sequence (P08514 32-887 limits assumed) above
T2 sequence (P08514 891-1039 limits assumed): as the sequence (P08514 891-1039 limits assumed) above
T2 sequence (P05106 27-788): as the sequence (P05106 27-788) above

Row | IC50 [1] [nM] | Kb [2] [nM] | SMILES
1 | 20 | 794 | O=C(O)CCNC(=O)CCCCN1CCN(c2ccncc2)CC1 [Example 198, 3-[5-[4-(4-Pyridyl)piperazine-1-yl]pentanoyl]aminopropionic acid]
2 | 3.98 | 12.6 | O=C(O)CCCOc1ccc(N2CCN(c3ccncc3)CC2)cc1 [Example 200, 4-[4-[4-(4-Pyridyl)piperazine-1-yl]phenoxy]butyric acid, hydrochloride salt]
3 | > 100000 | 50100 | COCCNC(=O)CCCOc1ccc(N2CCN(c3ccncc3)CC2)cc1 [Example 201, N-2-Methoxyethyl-4-[4-[4-(4-pyridyl)piperazine-1-yl]phenoxy]butyramide, trifluoroacetate]
4 | 10 | 251 | C=CCc1cc(N2CCN(c3ccncc3)CC2)ccc1OCCCC(=O)O [Example 206]
5 | 1000 | 316 | CCCc1cc(N2CCN(c3ccncc3)CC2)ccc1OCCCC(=O)OCC [Example 207, Ethyl 4-[2-n-propyl-4-[4-(4-pyridyl)piperazin-1-yl]phenoxy]butyrate]
6 | 2510 | 316 | Cc1ccc(S(=O)(=O)NCC2CCN(C(=O)CN3CCN(c4ccncc4)CC3)CC2)cc1 [Example 222, N-[1-[2-[4-(4-Pyridyl)piperazin-1-yl]acetyl]piperidin-4-ylmethyl]-4-methylphenylsulphonamide]
7 | 1580 | 1000 | Cc1ccc(S(=O)(=O)NCCC2CCN(C(=O)CN3CCN(c4ccncc4)CC3)CC2)cc1 [Example 223, N-[2-[1-[2-[4-(4-pyridyl)piperazin-1-yl]acetyl]piperidin-4-ylethyl]-4-methylphenylsulphonamide, dihydrochloride]
8 | 501 | 31600 | CN(C)c1ccncc1CCCOc1ccc(OCCCC(=O)O)cc1 [Example 224, 4-[4-[3-(4-dimethylaminopyrid-3-yl)propyloxy]phenoxy]butyric acid]
9 | 3160 | 20000 | CCOC(=O)CCCOc1cccc(N2CCN(c3ccncc3)CC2)c1 [Example 226, Ethyl 3-[4-(4-pyridyl)piperazin-1-yl]phenoxybutyrate]

The next lines start with the molecule.

Row | SMILES | IC50 [1] [nM] | Kb [2] [nM]
10 | COC(=O)[C@H](Cc1ccccc1)NC(=O)c1ccc(N2CCN(c3ccncc3)CC2)cc1 [Example 190, N[4-[(4-Pyridyl)piperazin-1-yl]benzoyl]-L-phenylalanine, methyl ester] | 20000 | 63100
11 | O=C(N[C@@H](Cc1ccccc1)C(=O)O)c1ccc(N2CCN(c3ccncc3)CC2)cc1 [Example 191] | 3980 | > 100000
12 | O=C(O)C[C@H](NC(=O)c1ccc(N2CCN(c3ccncc3)CC2)cc1)C(=O)NCCc1ccccc1 [Example 192, (S)-3-[N-[2-Phenenthyl]carboxamido]-3-[4-[4-(4-pyridyl)piperazin-1-yl]]-benzamidopropionic acid] | 251 | > 100000
13 | O=C(O)C[C@@H](NC(=O)c1ccc(N2CCN(c3ccncc3)CC2)cc1)C(=O)NCCc1ccccc1 [Example 193] | 251 | 39800
14 | O=C(O)C[C@H](NC(=O)CNC(=O)CN1CCN(c2ccncc2)CC1)C(=O)NCCc1ccccc1 [Example 194, (S)-3-[N-(2-Phenethyl)carboxamido]-3-[N-[N-2-[4-(4-pyridyl)piperazin-1-yl]acetyl]glycyl]aminopropionic acid, trifluoroacetate] | 126 | 3980
15 | O=C(O)CCNC(=O)CCCN1CCN(c2ccncc2)CC1 [Example 195, 3-[4-[4-(4-Pyridyl)piperazin-1-yl]butyryl]aminopropionic acid, trifluoroacetate] | 158 | 2510
16 | O=C(O)CCCCN1CCN(c2ccncc2)CC1 [Example 196, 5-[(4-Pyridyl)piperazin-1-yl]pentanoic acid, dihydrochloride salt] | 6310 | 100000
17 | COC(=O)CCNC(=O)CCCCN1CCN(c2ccncc2)CC1 [Example 197, Methyl 3-[5-[4-(4-pyridyl)piperazine-1-yl]petanoyl]aminopropionate] | 15800 | 63100
